Test results taken from the NIST ThermoML archive (doi:10.1016/j.jct.2012.08.010).
Numbers after ± are expanded uncertainties.

Experiment: refractive index (Na D-line) (dimensionless); φn = volume fraction of the nth substance listed
Conditions: 101 kPa, Liquid, Standard Abbe refractometry

C=C[Si]1(C)O[Si](C)(C=C)O[Si](C)(C=C)O[Si](C)(C=C)O1 (stereo not given) [2,4,6,8-tetramethyl-2,4,6,8-tetravinylcycloterasiloxane] + Cc1cccc(C)c1
Conditions	refractive index
288.15 K, φ1 = 0.1301	1.4916 ± 0.0003
288.15 K, φ1 = 0.2524	1.48392 ± 0.00031
288.15 K, φ1 = 0.3347	1.47877 ± 0.00031
288.15 K, φ1 = 0.4159	1.47367 ± 0.00031
288.15 K, φ1 = 0.4865	1.46917 ± 0.00032
288.15 K, φ1 = 0.5517	1.46505 ± 0.00032
288.15 K, φ1 = 0.5985	1.46211 ± 0.00032
288.15 K, φ1 = 0.653	1.45885 ± 0.00032
288.15 K, φ1 = 0.6984	1.45591 ± 0.00032
288.15 K, φ1 = 0.7389	1.45344 ± 0.00032
288.15 K, φ1 = 0.776	1.45106 ± 0.00032
288.15 K, φ1 = 0.8087	1.44894 ± 0.00032
288.15 K, φ1 = 0.8405	1.44691 ± 0.00032
288.15 K, φ1 = 0.866	1.44524 ± 0.00032
288.15 K, φ1 = 0.8941	1.44346 ± 0.00032
288.15 K, φ1 = 0.9183	1.44189 ± 0.00032
288.15 K, φ1 = 0.941	1.44046 ± 0.00032
288.15 K, φ1 = 0.9804	1.43797 ± 0.00033
288.15 K, φ1 = 1	1.43674 ± 0.00033
298.15 K, φ1 = 0.1302	1.48641 ± 0.00031
298.15 K, φ1 = 0.2525	1.4788 ± 0.0003
298.15 K, φ1 = 0.3347	1.47372 ± 0.00031
298.15 K, φ1 = 0.416	1.46865 ± 0.00031
298.15 K, φ1 = 0.4866	1.46426 ± 0.00032
298.15 K, φ1 = 0.5518	1.46017 ± 0.00032
298.15 K, φ1 = 0.5986	1.45726 ± 0.00032
298.15 K, φ1 = 0.6531	1.454 ± 0.001
298.15 K, φ1 = 0.6984	1.45105 ± 0.00032
298.15 K, φ1 = 0.7389	1.44845 ± 0.00032
298.15 K, φ1 = 0.7761	1.4461 ± 0.0003
298.15 K, φ1 = 0.8087	1.44408 ± 0.00032
298.15 K, φ1 = 0.8405	1.44212 ± 0.00032
298.15 K, φ1 = 0.866	1.44048 ± 0.00032
298.15 K, φ1 = 0.8941	1.4387 ± 0.0003
298.15 K, φ1 = 0.9183	1.43717 ± 0.00032
298.15 K, φ1 = 0.941	1.43574 ± 0.00032
298.15 K, φ1 = 0.9804	1.43324 ± 0.00033
298.15 K, φ1 = 1	1.43202 ± 0.00033
308.15 K, φ1 = 0.1302	1.48109 ± 0.00031
308.15 K, φ1 = 0.2525	1.47359 ± 0.00031
308.15 K, φ1 = 0.3348	1.46856 ± 0.00031
308.15 K, φ1 = 0.4161	1.46354 ± 0.00031
308.15 K, φ1 = 0.4867	1.45917 ± 0.00032
308.15 K, φ1 = 0.5519	1.45513 ± 0.00032
308.15 K, φ1 = 0.5987	1.45223 ± 0.00032
308.15 K, φ1 = 0.6532	1.44903 ± 0.00032
308.15 K, φ1 = 0.6985	1.4461 ± 0.0003
308.15 K, φ1 = 0.739	1.44355 ± 0.00032
308.15 K, φ1 = 0.7761	1.44125 ± 0.00032
308.15 K, φ1 = 0.8088	1.43919 ± 0.00032
308.15 K, φ1 = 0.8406	1.43727 ± 0.00032
308.15 K, φ1 = 0.8661	1.43566 ± 0.00032
308.15 K, φ1 = 0.8942	1.43391 ± 0.00032
308.15 K, φ1 = 0.9183	1.4324 ± 0.0003
308.15 K, φ1 = 0.941	1.43098 ± 0.00032
308.15 K, φ1 = 0.9804	1.4285 ± 0.0003
308.15 K, φ1 = 1	1.4273 ± 0.0003
318.15 K, φ1 = 0.1303	1.47582 ± 0.00031
318.15 K, φ1 = 0.2526	1.46841 ± 0.00031
318.15 K, φ1 = 0.3349	1.46342 ± 0.00031
318.15 K, φ1 = 0.4162	1.45843 ± 0.00031
318.15 K, φ1 = 0.4867	1.45413 ± 0.00032
318.15 K, φ1 = 0.5519	1.45015 ± 0.00032
318.15 K, φ1 = 0.5988	1.44727 ± 0.00032
318.15 K, φ1 = 0.6533	1.44383 ± 0.00032
318.15 K, φ1 = 0.6986	1.44117 ± 0.00032
318.15 K, φ1 = 0.7391	1.43865 ± 0.00032
318.15 K, φ1 = 0.7762	1.43639 ± 0.00032
318.15 K, φ1 = 0.8088	1.43434 ± 0.00032
318.15 K, φ1 = 0.8406	1.43244 ± 0.00032
318.15 K, φ1 = 0.8661	1.43085 ± 0.00032
318.15 K, φ1 = 0.8942	1.42911 ± 0.00032
318.15 K, φ1 = 0.9184	1.42763 ± 0.00032
318.15 K, φ1 = 0.9411	1.42622 ± 0.00032
318.15 K, φ1 = 0.9804	1.42377 ± 0.00033
318.15 K, φ1 = 1	1.42257 ± 0.00033
328.15 K, φ1 = 0.1303	1.47053 ± 0.00031
328.15 K, φ1 = 0.2526	1.46321 ± 0.00031
328.15 K, φ1 = 0.335	1.45825 ± 0.00031
328.15 K, φ1 = 0.4163	1.45333 ± 0.00031
328.15 K, φ1 = 0.4868	1.44908 ± 0.00032
328.15 K, φ1 = 0.552	1.44511 ± 0.00032
328.15 K, φ1 = 0.5988	1.44229 ± 0.00032
328.15 K, φ1 = 0.6533	1.43851 ± 0.00032
328.15 K, φ1 = 0.6986	1.43604 ± 0.00032
328.15 K, φ1 = 0.7391	1.43374 ± 0.00032
328.15 K, φ1 = 0.7762	1.43152 ± 0.00032
328.15 K, φ1 = 0.8089	1.42952 ± 0.00032
328.15 K, φ1 = 0.8407	1.42761 ± 0.00032
328.15 K, φ1 = 0.8661	1.42604 ± 0.00032
328.15 K, φ1 = 0.8942	1.42434 ± 0.00032
328.15 K, φ1 = 0.9184	1.42285 ± 0.00032
328.15 K, φ1 = 0.9411	1.42145 ± 0.00032
328.15 K, φ1 = 0.9804	1.41904 ± 0.00033
328.15 K, φ1 = 1	1.41785 ± 0.00033
